Source: patent publication US4976960A, “Food supplements” (Bar Ilan University, priority 1986, dated 1990)
Several values for one entry are separate records, joined by “and”; a condition that tells them apart may be missing. Identical values can stand only once.

Tests used:
peroxides in the skin = test: Peroxide level in skin of adult mice (TBA test), topical application; format: in vivo; conditions: 0.1% in Oil of Olay
Excerpt: Samples of lotions and appropriate controls were applied to mice or rat skin for a fixed period. The application was done once a day. Experiments were terminated by killing the animal, peeling the skin and freezing it in liquid nitrogen. Samples of the frozen skin were homogenized in 0.2M phosphate buffer, pH 6.5. After centrifugation, the supernatant was collected and analyzed for the peroxide value using the TBA (thiobarbituric acid) test as described by Sinnhuber et al, Food Res. 23:620 (1958).
In these experiments adult mice (2 months old) were treated as described in Example 2. The grown mice were shaved before applying the lotions to the skin. In this experiment the antioxidant was dissolved in Oil of Olay. Mice were sacrificed after 21 days.

[1] = tested on: peroxide level in the skin; test: Malondialdehyde (MDA) level in epidermis of UV-irradiated hairless mice; format: in vivo, hairless mice (SKH/Hr); conditions: for % decrease in MDA, mean / MDA, Treated Irradiated Site, mean / % decrease in MDA / MDA, Treated Irradiated Site: 5% in ethanol
Excerpt: In this experiment, alpha-tocopheryl acetate and the present antioxidant were applied to the skin of hairless mice and the level of peroxide in the skin after exposure to UV radiation compared to a control group. The detailed procedure was as follows.
The malondialdehyde (MDA) assay is based on the methods of Dixit et al [J. Invest. Derm., 81: 369-75 (1983)], Tappel and Summerfield ["Measurement of and protection from in vivo lipid peroxidation", Free Radicals in Biology Vol. IV (1980). Academic Press, New York (W. A. Pryor, ed.)] and Placer et al [Analytical Biochemistry, 16:359-64 (1966)].
6-8week old hairless mice [(SKH/Hr); Skin and Cancer Hospital, Temple University, Philadelphia] were anesthetized using a 1:10 dilution of Sodium Pentobarbital (50 mg./ml., Elkins-Sinn. Inc.). The UV light sources were 2 fluorescent lamps (Westinghouse PS-40) and light intensity was measured with an Optometer (United Detector Technology) using a UVB filter. The tissue was homogenized using a Heat Systems model W-10 Sonicator, filtration and centrifugation of the homogenates being effected through a 2.5 micron Millipore filter and a Sorvall RC-5 Speed Centrifuge, respectively. The buffer consisted of 0.1M potassium phosphate, pH 7.4 with 10^-4 M magnesium chloride.
The protein assay is based on the method given in Clinical Chemistry, 23: 908 (1977). The modified biuret reagent contains per liter 3.8 g. CuSO4, 6.7 g. EDTA, 17.5 g. glycine, 14.0 g. NaCI and 40.0 g. NaOH. Absorbance was measured on an MS-2 Spectrophotometer (Micromedic Systems, Inc.).
20 mice were anesthetized with Sodium Pentobarbital (0.5 mg./10 g. body weight). Two rectangular areas, 6.25 cm.^2 each, were outlined on the dorsal and ventral sides of each mouse. The dorsal areas were designated as left dorsal (site A) and right dorsal (site B). The ventral areas were designated as left ventral (site C) and right ventral (site D). The products were applied in an aliquot of 75 ul. to the designated sites. The application protocol was randomized so that a given treatment was not restricted to the same area of the skin. One site on each dorsal and ventral side remained untreated to serve as the irradiated controls. 15 minutes after product application, the mice were exposed to 110 millijoules of UV light per cm.^2 of skin area over a period of 220 seconds per side. The mice were placed so that the area to be irradiated was directly under the light source while the areas on the other side were protected from the radiation. The mice were irradiated on both the dorsal and ventral sides. After UV treatment, the mice were returned to separate cages to recover from the anesthesia.
4 hours after irradiation, the mice were sacrificed by cervical dislocation. The skin was removed and stretched over a styrofoam block. The epidermis was separated from the dermis by heating the skin in a water bath for 60 seconds at 54° C. and then scraping the surface with a scalpel. Each 6.25 cm. area of epidermis was placed in a separate 1.5 ml. Eppendorf vial with 200 ul. of buffer. The pieces of epidermis were homogenized by sonication for 2×30 seconds, with a 10 second pause between each 30 second period to prevent heat buildup. The vial was kept in an ice bath.
After homogenization, 1 ml. of buffer was added to each vial and vortexed. The homogenate was filtered through a 2.5 micron filter, twice. An aliquot containing 1.4-1.8 mg. of homogenate protein was placed into test tubes with 0.6 ml. 10% trichloroacetic acid and 1.2 ml. 0.5% (w/v) 2-thiobarbituric acid. The test tube mixture was well vortexed and then placed in a boiling water bath for 10 minutes, the top of the test tube being covered with a marble which acted as a condensor. The tubes were cooled with running tap water and centrifuged for 15 minutes at 30,000×g. Blanks were prepared by placing 0.1M phosphate buffer in test tubes. All assays were done in duplicate. […]

prostacyclin (PGI2) = test: Endogenous release of prostacyclin by isolated aorta segments of fed rabbits; format: in vivo; conditions: after 30 days, vs basal vitamin E deficient diet
[2] = tested on: liver microsomal NADPH oxidase; test: Liver microsomal NADPH oxidase activity in rabbits fed supplemented vitamin E deficient diet; format: in vivo; conditions: after 30 days, vs basal vitamin E deficient diet
Fibroblasts = test: Lipid peroxidation in fibroblast culture, TBA assay; format: cell-based; conditions: 0.01%, 3 days of incubation, 37° C.
Experimental: The possibility that the present antioxidant may serve as a substitute for vitamin E was also tested in tissue culture. Fibroblasts were grown in an appropriate medium for three days at a temperature of 37° C., (a) in absence of additive (control), (b) in presence of 0.01% vitamin E, and (c) in presence of 0.01% present (crude) antioxidant.

pyruvate oxidase = test: Pyruvate oxidase activity in rabbits fed supplemented vitamin E deficient diet; format: in vivo; conditions: after 30 days, vs basal vitamin E deficient diet
[3] = combined dorsal and ventral mean
[4] = ventral, individual samples 6-10

COc1ccc(O)c(C(C)(C)C)c1 [BHA, butylated hydroxy anisole]
effect on the level of peroxides in the skin (peroxides in the skin): no reduction of the level of peroxides was observed

Cc1cc(C(C)(C)C)c(O)c(C(C)(C)C)c1 [BHT, butylated hydroxy toluene]
effect on the level of peroxides in the skin (peroxides in the skin): no reduction of the level of peroxides was observed

CC(=O)Oc1c(C)c(C)c2c(c1C)CCC(C)(CCC[C@H](C)CCC[C@H](C)CCCC(C)C)O2 (stereo partly drawn) [alp. tocopheryl acetate, alpha-tocopheryl acetate]
effectiveness in reducing the level of peroxides in the skin ([1]; 1% antioxidant in Oil of Olay vs 5% alpha-tocopheryl acetate in ethanol): significantly less effective
% decrease in MDA, mean [1, 3]: 27.82%
MDA, Treated Irradiated Site, mean [1, 3]: 0.168 nM MDA/mg. protein
% decrease in MDA, mean ([1]; dorsal mean): 27.26%
MDA, Treated Irradiated Site, mean ([1]; dorsal mean): 0.165 nM MDA/mg. protein
% decrease in MDA ([1]; dorsal, individual samples 1-5): 34.78% and 39.77% and 22.92% and 12.75% and 26.10%
MDA, Treated Irradiated Site ([1]; dorsal, individual samples 1-5): 0.105 nM MDA/mg. protein and 0.103 nM MDA/mg. protein and 0.074 nM MDA/mg. protein and 0.308 nM MDA/mg. protein and 0.235 nM MDA/mg. protein
% decrease in MDA, mean ([1]; ventral mean): 28.38%
MDA, Treated Irradiated Site, mean ([1]; ventral mean): 0.172 nM MDA/mg. protein
% decrease in MDA [1, 4]: 42.41% and 28.95% and 23.17% and 22.39% and 25.00%
MDA, Treated Irradiated Site [1, 4]: 0.148 nM MDA/mg. protein and 0.189 nM MDA/mg. protein and 0.305 nM MDA/mg. protein and 0.027 nM MDA/mg. protein

Cc1c(C)c2c(c(C)c1O)CCC(C)(CCCC(C)CCCC(C)CCCC(C)C)O2 (stereo not drawn) [alpha tocopherol]
effect on the level of peroxides in the skin (peroxides in the skin): no reduction of the level of peroxides was observed

vitamin E
endogenous release of prostacyclin (PGI2), detected as 6-keto-PGF1-alpha (prostacyclin (PGI2)): significantly increased
liver microsomal NADPH oxidase activity (enzymatic lipid peroxidation) [2]: decreased
Peroxide value (TBA assay) (Fibroblasts): 0.015
pyruvate oxidase activity (enzymatic lipid peroxidation) (pyruvate oxidase): decreased
